The target in the test is megalin (Oryctolagus cuniculus, UniProt Z9GY10I8Y6). The test can be described thus: Inhibition of gentamicin binding to immobilized megalin by surface plasmon resonance (Biacore 2000). Conditions: 1 mM gentamicin co-injected; megalin purified from rabbit kidneys immobilized on chip; pH 7.4 buffer; FIG. 3; read-out: antagonist concentration at which 50% inhibition of gentamicin binding is obtained. As to the method: Inhibition of gentamicin binding to immobilized megalin by p-xylylene diamine was assessed by surface plasmon resonance (SPR) analysis on a Biacore 2000 instrument (Biacore, Uppsala, Sweden). Megalin purified from rabbit kidneys as described in Birn et al. (J. Biol. Chem., 1997, Vol. 272, No. 42, 26497-26504) was immobilized in a concentration of 28-40 fmol/mm^2. Samples were dissolved in 10 mM Hepes, 150 mM NaCl, 1.5 mM CaCl2, 1 mM EGTA, 0.005% Tween-20 pH 7.4. The same buffer was used as running buffer. At time zero, p-xylylene diamine at the concentrations indicated (FIG. 3) were applied to the chip and binding as expressed in relative response units (RU), i.e. the difference in response between megalin and a control flow channel, was measured. After 700 sec., 1 mM gentamicin was co-injected with buffer alone or various concentrations of p-xylylene diamine. Inhibition of gentamicin binding is scored as the difference in RU units obtained by injection of gentamicin alone and in the presence of the antagonist. Regeneration of the sensor chip after each analysis cycle was performed with 1.6 M glycine-HCl buffer pH 3.0.
50% inhibition is obtained at an antagonist concentration of about 0.1 mM.
For orientation: SPR reads the build-up and loss of mass on a sensor chip optically.

pIC50: −log10 of the molar value.

Chain of megalin (Z9GY10I8Y6 26-4660 limits assumed): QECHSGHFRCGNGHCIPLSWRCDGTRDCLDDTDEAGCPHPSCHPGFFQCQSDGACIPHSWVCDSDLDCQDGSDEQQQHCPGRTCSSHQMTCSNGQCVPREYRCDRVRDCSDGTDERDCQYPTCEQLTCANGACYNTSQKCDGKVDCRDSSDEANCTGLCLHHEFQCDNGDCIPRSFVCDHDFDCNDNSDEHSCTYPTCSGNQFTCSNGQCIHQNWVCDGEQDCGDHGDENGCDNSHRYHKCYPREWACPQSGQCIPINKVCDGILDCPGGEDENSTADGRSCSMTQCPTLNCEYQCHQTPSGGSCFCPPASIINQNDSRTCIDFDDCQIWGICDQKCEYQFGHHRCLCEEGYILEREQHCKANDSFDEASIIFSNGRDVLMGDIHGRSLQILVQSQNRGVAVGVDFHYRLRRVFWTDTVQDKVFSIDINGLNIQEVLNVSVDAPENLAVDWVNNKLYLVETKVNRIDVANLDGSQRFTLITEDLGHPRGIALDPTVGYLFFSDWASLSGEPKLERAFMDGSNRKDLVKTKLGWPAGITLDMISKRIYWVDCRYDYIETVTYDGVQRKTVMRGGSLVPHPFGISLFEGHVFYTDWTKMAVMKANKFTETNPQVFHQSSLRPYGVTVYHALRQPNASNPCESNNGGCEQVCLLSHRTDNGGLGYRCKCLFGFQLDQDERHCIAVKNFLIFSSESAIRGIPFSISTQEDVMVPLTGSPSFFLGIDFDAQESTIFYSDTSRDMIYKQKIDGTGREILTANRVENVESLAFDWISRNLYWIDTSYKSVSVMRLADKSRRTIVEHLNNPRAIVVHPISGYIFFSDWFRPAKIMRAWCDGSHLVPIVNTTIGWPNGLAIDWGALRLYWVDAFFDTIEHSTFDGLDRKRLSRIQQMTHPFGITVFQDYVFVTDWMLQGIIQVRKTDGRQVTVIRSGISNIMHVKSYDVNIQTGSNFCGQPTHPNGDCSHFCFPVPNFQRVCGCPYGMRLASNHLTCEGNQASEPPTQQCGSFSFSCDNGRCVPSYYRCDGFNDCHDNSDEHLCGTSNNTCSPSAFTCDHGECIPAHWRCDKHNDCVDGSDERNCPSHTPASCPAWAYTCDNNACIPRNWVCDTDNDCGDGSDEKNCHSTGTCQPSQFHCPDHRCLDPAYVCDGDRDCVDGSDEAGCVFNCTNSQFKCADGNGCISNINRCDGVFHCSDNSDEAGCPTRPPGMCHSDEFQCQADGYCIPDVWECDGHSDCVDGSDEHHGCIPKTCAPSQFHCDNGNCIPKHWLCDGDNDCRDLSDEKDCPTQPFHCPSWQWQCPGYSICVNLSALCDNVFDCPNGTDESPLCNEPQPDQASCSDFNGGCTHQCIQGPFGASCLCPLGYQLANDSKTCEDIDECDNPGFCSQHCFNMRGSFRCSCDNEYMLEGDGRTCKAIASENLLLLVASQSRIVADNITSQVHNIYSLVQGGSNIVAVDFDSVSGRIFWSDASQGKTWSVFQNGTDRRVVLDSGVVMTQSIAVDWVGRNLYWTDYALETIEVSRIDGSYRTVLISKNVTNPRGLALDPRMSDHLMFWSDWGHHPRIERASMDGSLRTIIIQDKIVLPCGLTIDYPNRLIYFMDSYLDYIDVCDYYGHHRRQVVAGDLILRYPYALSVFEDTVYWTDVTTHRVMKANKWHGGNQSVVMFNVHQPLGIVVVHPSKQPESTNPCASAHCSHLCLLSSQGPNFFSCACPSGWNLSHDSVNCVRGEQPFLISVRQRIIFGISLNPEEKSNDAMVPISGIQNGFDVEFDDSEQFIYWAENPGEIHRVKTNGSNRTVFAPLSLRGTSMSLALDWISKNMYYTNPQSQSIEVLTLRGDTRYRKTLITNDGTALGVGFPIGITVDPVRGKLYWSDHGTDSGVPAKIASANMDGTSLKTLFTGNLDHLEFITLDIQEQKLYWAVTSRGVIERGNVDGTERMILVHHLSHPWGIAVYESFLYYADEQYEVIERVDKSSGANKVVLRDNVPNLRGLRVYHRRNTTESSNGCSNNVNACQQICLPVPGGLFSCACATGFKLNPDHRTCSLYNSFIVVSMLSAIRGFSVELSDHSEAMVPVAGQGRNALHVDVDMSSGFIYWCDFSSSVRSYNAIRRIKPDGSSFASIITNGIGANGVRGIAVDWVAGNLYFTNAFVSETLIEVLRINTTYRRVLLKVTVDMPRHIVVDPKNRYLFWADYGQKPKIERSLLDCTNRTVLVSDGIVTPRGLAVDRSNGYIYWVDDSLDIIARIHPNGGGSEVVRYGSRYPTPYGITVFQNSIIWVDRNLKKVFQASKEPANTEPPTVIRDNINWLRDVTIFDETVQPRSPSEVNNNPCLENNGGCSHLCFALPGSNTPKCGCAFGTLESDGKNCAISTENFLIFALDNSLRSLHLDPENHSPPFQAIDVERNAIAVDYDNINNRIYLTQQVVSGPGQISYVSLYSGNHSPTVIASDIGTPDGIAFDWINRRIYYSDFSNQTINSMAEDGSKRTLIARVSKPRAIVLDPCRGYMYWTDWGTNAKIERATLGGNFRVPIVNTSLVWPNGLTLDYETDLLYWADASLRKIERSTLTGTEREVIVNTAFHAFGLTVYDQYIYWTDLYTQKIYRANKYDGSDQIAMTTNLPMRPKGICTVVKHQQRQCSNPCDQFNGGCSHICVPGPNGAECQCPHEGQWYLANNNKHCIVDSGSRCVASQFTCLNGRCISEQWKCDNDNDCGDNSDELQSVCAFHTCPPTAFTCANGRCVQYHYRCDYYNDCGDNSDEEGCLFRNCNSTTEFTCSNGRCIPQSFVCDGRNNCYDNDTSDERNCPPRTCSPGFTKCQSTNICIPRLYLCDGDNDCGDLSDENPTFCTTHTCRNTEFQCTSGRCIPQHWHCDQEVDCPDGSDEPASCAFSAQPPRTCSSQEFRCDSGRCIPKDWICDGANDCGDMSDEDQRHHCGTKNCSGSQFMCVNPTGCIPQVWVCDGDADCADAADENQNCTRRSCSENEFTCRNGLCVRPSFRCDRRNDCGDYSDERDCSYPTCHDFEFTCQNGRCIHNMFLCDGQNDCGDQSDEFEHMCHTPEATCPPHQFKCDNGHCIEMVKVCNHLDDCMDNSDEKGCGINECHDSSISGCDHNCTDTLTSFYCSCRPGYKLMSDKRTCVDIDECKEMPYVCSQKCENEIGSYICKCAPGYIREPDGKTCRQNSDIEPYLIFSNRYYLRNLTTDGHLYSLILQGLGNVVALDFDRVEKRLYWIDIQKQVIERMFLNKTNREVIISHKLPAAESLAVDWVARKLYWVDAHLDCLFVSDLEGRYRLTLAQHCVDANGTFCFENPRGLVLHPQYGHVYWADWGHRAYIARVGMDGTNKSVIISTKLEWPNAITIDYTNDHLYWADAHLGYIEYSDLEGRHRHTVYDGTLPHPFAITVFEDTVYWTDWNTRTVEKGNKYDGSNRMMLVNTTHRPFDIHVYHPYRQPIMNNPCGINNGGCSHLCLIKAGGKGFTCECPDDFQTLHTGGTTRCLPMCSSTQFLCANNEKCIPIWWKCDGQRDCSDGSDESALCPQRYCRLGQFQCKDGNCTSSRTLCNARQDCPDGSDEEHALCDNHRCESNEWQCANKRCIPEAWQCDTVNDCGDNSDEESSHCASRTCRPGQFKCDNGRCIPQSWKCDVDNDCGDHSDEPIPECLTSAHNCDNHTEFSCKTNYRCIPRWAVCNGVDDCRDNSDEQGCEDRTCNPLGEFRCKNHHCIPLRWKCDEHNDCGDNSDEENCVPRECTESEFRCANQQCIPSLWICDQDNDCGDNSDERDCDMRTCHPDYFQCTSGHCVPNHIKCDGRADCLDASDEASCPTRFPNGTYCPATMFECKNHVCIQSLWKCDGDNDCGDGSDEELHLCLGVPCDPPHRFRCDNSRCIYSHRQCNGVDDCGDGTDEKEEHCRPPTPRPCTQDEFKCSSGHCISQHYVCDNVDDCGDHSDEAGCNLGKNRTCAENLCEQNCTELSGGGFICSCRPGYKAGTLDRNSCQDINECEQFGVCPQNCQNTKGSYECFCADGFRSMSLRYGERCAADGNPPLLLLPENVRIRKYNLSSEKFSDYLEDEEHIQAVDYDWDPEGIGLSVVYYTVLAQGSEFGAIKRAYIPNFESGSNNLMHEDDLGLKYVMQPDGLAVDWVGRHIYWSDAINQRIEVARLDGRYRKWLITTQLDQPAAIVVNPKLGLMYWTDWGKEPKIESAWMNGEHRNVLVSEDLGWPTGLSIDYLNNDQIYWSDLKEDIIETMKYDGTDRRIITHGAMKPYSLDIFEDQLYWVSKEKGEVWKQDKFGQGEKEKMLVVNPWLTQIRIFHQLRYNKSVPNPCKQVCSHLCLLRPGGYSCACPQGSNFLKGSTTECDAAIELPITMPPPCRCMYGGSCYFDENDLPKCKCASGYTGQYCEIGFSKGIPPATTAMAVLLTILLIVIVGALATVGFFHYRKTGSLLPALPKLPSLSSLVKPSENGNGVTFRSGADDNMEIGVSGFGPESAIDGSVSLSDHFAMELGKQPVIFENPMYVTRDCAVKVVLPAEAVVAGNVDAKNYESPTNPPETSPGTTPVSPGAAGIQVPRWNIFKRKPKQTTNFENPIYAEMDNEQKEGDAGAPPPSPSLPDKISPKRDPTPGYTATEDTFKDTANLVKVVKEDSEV

In the case of `NCc1ccc(CN)cc1` [RC043, p-xylylene diamine], the pIC50 is about 4.00.

These data come from US20090110720A1, “Use of compounds for the prevention of drug-induced cell toxicity” (priority 2005, published 2009).
